Values of other authors as cited in patent US8449906B2, “Effervescent compositions comprising phosphonates and methods related thereto” (EffRx Pharmaceuticals, S.A., priority 2002, dated 2013).

pKa: about 3.9
Structure (SMILES): COc1ccc2[nH]c([S+]([O-])Cc3ncc(C)c(OC)c3C)nc2c1 (stereo not shown) [omeprazole]
